The record followed here is patent publication US20090312575A1, “Process For Preparing A Benzoylbenzeneacetamide Derivative” (Medichem, S.A., priority 2008, published 2009).

The nature of series [1]: solubility profile at room temperature in organic solvents. The class given is physicochemical. The source says:
Optionally, water can be added to the suspension earlier than the filtration. Further, this filtration step introduces an additional purification step.

Series [2] in a line: polymorphic form after one year storage (XRD and IR). The class given is physicochemical. The note with it: one year at room temperature and ambient atmosphere conditions. The source says: X-ray Powder Diffraction (XRD). The XRD diffractograms were obtained using a RX SIEMENS D5000 diffractometer with a vertical goniometer, a copper anodic tube, and radiation CuKα, λ=1, 54056 Á.
Infrared Spectra (IR). Fourier transform IR spectra were acquired on a Thermo Nicolet Nexus spectrometer, and polymorphs were characterized in potassium bromide pellets.
Analytical data: XRD: Form A, see FIG. 1; IR: see FIG. 2; DSC: see FIG. 7. Analytical data of the compound after one year at room temperature and ambient atmosphere conditions (XRD and IR): Form A.
Analytical data: XRD: Form B, see FIG. 3; DSC: see FIG. 8. Analytical data of the compound after one year at room temperature and ambient atmosphere conditions (XRD and IR): Form B.

Values after ≈ are worked out from the molar mass of the structure shown. Read-outs that look alike come from different tables or passages of the source.

On to `CSC(C(N)=O)c1cccc(C(=O)c2ccccc2)c1N` (stereo not drawn) [compound (IV) Form B, 2-amino-3-benzoyl-α-(methylthio)benzeneacetamide], for which, in series [1] (acetonitrile, organic solvent or mixture, acetonitrile (reaction mixture solvent), read-out: solubility in acetonitrile), the solubility is ~5.9 mg/mL (≈ 19.6 mM). Moreover, the solubility in tetrahydrofuran result in series [1] (tetrahydrofuran, room temperature) was “approx. 33 mg/mL”. Also, the “crystalline form after one year (XRD and IR)” value in series [2] (listed as Example 5) is “Form B”.

As to `CSC(C(N)=O)c1cccc(C(=O)c2ccccc2)c1N` (stereo not drawn) [compound (IV) Form A, 2-amino-3-benzoyl-α-(methylthio)benzeneacetamide], the solubility is ~50 mg/mL (≈ 166 mM) in series [1] (1:1 mixture of tetrahydrofuran/water, aqueous with cosolvent or surfactant or cyclodextrin, 1:1 tetrahydrofuran/water, room temperature, read-out: solubility in a 1:1 mixture of tetrahydrofuran/water) and ~50 mg/mL (≈ 166 mM) in series [1] (tetrahydrofuran, organic solvent or mixture, tetrahydrofuran, room temperature, read-out: solubility in tetrahydrofuran). In series [2] (listed as Example 4), the “crystalline form after one year (XRD and IR)” value is listed as “Form A”.
